Marks after values point to notes of the source that are not given here.
Assay: Measurement of LogP values by HPLC on reversed phase columns (EEC directive 79/831 Annex V.A8)
Format: physicochemical
Details: for chromatographic logP: method [a]: LC-UV, acidic range
Protocol: Calibration was done with straight-chain alkan2-ones (with 3 to 16 carbon atoms) with known LogP values (measurement of LogP values using retention times with linear interpolation between successive alkanones). Lambda-max-values were determined using UV-spectra from 200 nm to 400 nm and the peak values of the chromatographic signals

[1] = 0.1% formic acid, intermediates of formula (4), Table 9

SMILES	LogP	other results
Cc1ccc(CC(CON)NC(=O)c2cc(C)nnc2Oc2cccc(Cl)c2)c(C)c1 (racemic) [Compound 4-01, N-[(2RS)-1-(aminooxy)-3-(2,4-dimethylphenyl)propan-2-yl]-3-(3-chlorophenoxy)-6-methylpyridazine-4-carboxamide]	–	chromatographic logP [1]: 2.64
Cc1ccc(C)c(CC(CCl)NC(=NO)c2cc(C)nnc2Oc2cccc(Cl)c2F)c1 (stereo not drawn) [Compound 15-05]	3.84^[a]	–
Cc1ccc(CC2CON=C(c3cc(Cl)nnc3Oc3cccc(Cl)c3)N2)c(Cl)c1 (racemic) [Compound I-017, (5RS)-3-[6-chloro-3-(3-chlorophenoxy)pyridazin-4-yl]-5-(2-chloro-4-methylbenzyl)-5,6-dihydro-4H-1,2,4-oxadiazine]	–	chromatographic logP (0.1% formic acid in water and acetonitrile, compounds of formula (I-1), Table 1): 4.44
Cc1ccc(C)c(CC(CCl)NC(=O)c2cc(C)nnc2Oc2cccc(Cl)c2F)c1 (stereo not drawn) [Compound 14-07]	4.42^[a]	–
Cc1ccc(CC(CCl)NC(=NO)c2cc(C)nnc2Oc2cccc(Cl)c2)c(Br)c1 (stereo not drawn) [Compound 15-01]	3.84^[a]	–
Cc1cc(C(=O)O)c(Oc2cccc(C)c2F)nn1 [Compound 1-02]	1.32^[a]	–
Cc1ccc(CC(CCl)NC(=O)c2cc(C)nnc2Oc2cccc(Cl)c2)c(Br)c1 (stereo not drawn) [Compound 14-01]	4.51^[a]	–
Cc1cc(C)cc(CC(CCl)NC(=O)c2cc(C)nnc2Oc2cccc(Cl)c2)c1 (stereo not drawn) [Compound 14-05]	4.51^[a]	–
Cc1ccc(CC(CON2C(=O)c3ccccc3C2=O)NC(=O)c2cc(C)nnc2Oc2cccc(Cl)c2)c(C)c1 (racemic) [Compound 3-01, 3-(3-chlorophenoxy)-N-{(2RS)-1-(2,4-dimethylphenyl)-3-[(1,3-dioxo-1,3-dihydro-2H-isoindol-2-yl)oxy]propan-2-yl}-6-methylpyridazine-4-carboxamide]	–	chromatographic logP (0.1% formic acid, intermediates of formula (3), Table 7): 4.47
Cc1cc(C(=O)O)c(Oc2cccc(Cl)c2)nn1 [Compound 1-01]	1.26^[a]	–
Cc1ccc(CC(N)CON2C(=O)c3ccccc3C2=O)c(C)c1.O=C(O)C(F)(F)F (stereo not drawn) [Compound 2-01]	1.55[a]	–
Cc1ccc(C)c(CC(N)CCl)c1.Cl (stereo not drawn) [Compound 13-03]	1.13[a]	–
Cc1cc(C(=O)OC(C)C)c(Oc2cccc(C3(F)CC3)c2)nn1 [Compound 1-06]	4.73^[a]	–
Cc1ccc(CC(CCl)NC(=NO)c2cc(C)nnc2Oc2cccc(Cl)c2)c(Cl)c1 (racemic) [Compound 15-03]	–	chromatographic logP (0.1% formic acid, intermediates of formula (15), Table 15): 3.78
Cc1ccc(CC(CCl)NC(=NO)c2cc(C)nnc2Oc2cccc(C)c2F)c(Cl)c1 (stereo not drawn) [Compound 15-02]	3.75^[a]	–
Cc1cc(C)cc(CC(N)CCl)c1.Cl (stereo not drawn) [Compound 13-02]	1.32[a]	–
Cc1cc(C(=O)O)c(Oc2cccc(C3(F)CC3)c2)nn1 [Compound 1-05]	0.68^[a]	–
Cc1ccc(C)c(CC(CCl)NC(=O)c2cc(C)nnc2Oc2cccc(C)c2F)c1 (stereo not drawn) [Compound 14-08]	4.37^[a]	–
O=C(NC(CON1C(=O)c2ccccc2C1=O)Cc1ccc(Cl)cc1Cl)c1cc(Cl)nnc1Oc1cccc(C2CC2)c1F (stereo not drawn) [Compound 3-02]	5.27^[a]	–
Cc1cc(C)cc(CC(CCl)NC(=O)c2cc(C)nnc2Oc2cccc(Cl)c2F)c1 (stereo not drawn) [Compound 14-06]	4.59^[a]	–
Cc1ccc(CC(CCl)NC(=O)c2cc(C)nnc2Oc2cccc(Cl)c2)c(Cl)c1 (racemic) [Compound 14-03, N-[(2RS)-1-chloro-3-(2-chloro-4-methylphenyl)propan-2-yl]-3-(3-chlorophenoxy)-6-methylpyridazine-4-carboxamide]	–	chromatographic logP (0.1% formic acid, intermediates of formula (14), Table 17): 4.43
Cc1ccc(C)c(CC(CCl)NC(=O)c2cc(C)nnc2Oc2cccc(Cl)c2)c1 (stereo not drawn) [Compound 14-09]	4.37^[a]	–
Cc1ccc(CC(CCl)NC(=O)c2cc(Cl)nnc2Oc2cccc(Cl)c2)c(Cl)c1 (stereo not drawn) [Compound 14-12]	4.97^[a]	–
NOCC(Cc1ccc(Cl)cc1Cl)NC(=O)c1cc(Cl)nnc1Oc1cccc(C2CC2)c1F (racemic) [Compound 4-02, 6-chloro-3-(3-cyclopropyl-2-fluoro-phenoxy)-N-[(1RS)-1-(aminooxymethyl)-2-(2,4-dichlorophenyl)ethyl]pyridazine-4-carboxamide]	–	chromatographic logP [1]: 3.7
